{"source": "PubChem BioAssay (NCI)", "assay_in_all_cases": "growth of human tumour cells (NCI), 48 h", "key": {"TK-10 renal": {"system": "TK-10 renal"}, "RXF 393 renal": {"system": "RXF 393 renal"}, "NCI-H226 lung": {"system": "NCI-H226 lung"}, "SR leukemia": {"system": "SR leukemia"}, "PC-3 prostate": {"system": "PC-3 prostate"}, "OVCAR-4 ovarian": {"system": "OVCAR-4 ovarian"}, "COLO 205 colon": {"system": "COLO 205 colon"}, "M14 melanoma": {"system": "M14 melanoma"}, "SK-MEL-28 melanoma": {"system": "SK-MEL-28 melanoma"}, "T-47D breast": {"system": "T-47D breast"}}, "note": "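96-well plates; 48 h exposure; 5 concentrations. Endpoints by linear interpolation between flanking doses. Not reached: highest tested concentration assigned. GI50 is the concentration that inhibits growth by half. The concentration for full growth arrest is given as TGI.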"}
{"compound": "Clc1nc(Cl)c2ncn(CC3(Cn4cnc5c(Cl)nc(Cl)nc54)COC3)c2n1", "values": [{"measurement": "GI50", "setting": "TK-10 renal", "value": 0.601, "unit": "µM"}, {"measurement": "TGI", "setting": "TK-10 renal", "value": 1.2, "unit": "µM"}, {"measurement": "GI50", "setting": "RXF 393 renal", "value": 0.196, "unit": "µM"}, {"measurement": "TGI", "setting": "RXF 393 renal", "value": 0.405, "unit": "µM"}, {"measurement": "GI50", "setting": "NCI-H226 lung", "value": 1.77, "unit": "µM"}, {"measurement": "TGI", "setting": "NCI-H226 lung", "value": 3.68, "unit": "µM"}, {"measurement": "GI50", "setting": "SR leukemia", "value": 0.407, "unit": "µM"}, {"measurement": "TGI", "setting": "SR leukemia", "value": "> 100", "unit": "µM"}, {"measurement": "GI50", "setting": "PC-3 prostate", "value": 0.188, "unit": "µM"}, {"measurement": "TGI", "setting": "PC-3 prostate", "value": 0.348, "unit": "µM"}, {"measurement": "GI50", "setting": "OVCAR-4 ovarian", "value": 0.276, "unit": "µM"}, {"measurement": "TGI", "setting": "OVCAR-4 ovarian", "value": 0.763, "unit": "µM"}, {"measurement": "GI50", "setting": "COLO 205 colon", "value": 0.184, "unit": "µM"}, {"measurement": "TGI", "setting": "COLO 205 colon", "value": 0.356, "unit": "µM"}, {"measurement": "GI50", "setting": "M14 melanoma", "value": 0.274, "unit": "µM"}, {"measurement": "TGI", "setting": "M14 melanoma", "value": 0.753, "unit": "µM"}, {"measurement": "GI50", "setting": "SK-MEL-28 melanoma", "value": 0.212, "unit": "µM"}, {"measurement": "TGI", "setting": "SK-MEL-28 melanoma", "value": 0.396, "unit": "µM"}, {"measurement": "GI50", "setting": "T-47D breast", "value": 0.179, "unit": "µM"}, {"measurement": "TGI", "setting": "T-47D breast", "value": 0.391, "unit": "µM"}]}
{"compound": "N=C1C(c2nc3ccccc3s2)=C(O)CN1c1ccc(F)c(Cl)c1", "values": [{"measurement": "GI50", "setting": "TK-10 renal", "value": 22.7, "unit": "µM"}, {"measurement": "TGI", "setting": "TK-10 renal", "value": "> 100", "unit": "µM"}, {"measurement": "GI50", "setting": "RXF 393 renal", "value": 7.38, "unit": "µM"}, {"measurement": "TGI", "setting": "RXF 393 renal", "value": 33.9, "unit": "µM"}, {"measurement": "GI50", "setting": "NCI-H226 lung", "value": 6.11, "unit": "µM"}, {"measurement": "TGI", "setting": "NCI-H226 lung", "value": 55.4, "unit": "µM"}, {"measurement": "GI50", "setting": "SR leukemia", "value": 0.666, "unit": "µM"}, {"measurement": "TGI", "setting": "SR leukemia", "value": 6.33, "unit": "µM"}, {"measurement": "GI50", "setting": "PC-3 prostate", "value": 4.04, "unit": "µM"}, {"measurement": "TGI", "setting": "PC-3 prostate", "value": 30.8, "unit": "µM"}, {"measurement": "GI50", "setting": "OVCAR-4 ovarian", "value": 20.5, "unit": "µM"}, {"measurement": "TGI", "setting": "OVCAR-4 ovarian", "value": "> 100", "unit": "µM"}, {"measurement": "GI50", "setting": "COLO 205 colon", "value": "> 100", "unit": "µM"}, {"measurement": "TGI", "setting": "COLO 205 colon", "value": "> 100", "unit": "µM"}, {"measurement": "GI50", "setting": "M14 melanoma", "value": "> 100", "unit": "µM"}, {"measurement": "TGI", "setting": "M14 melanoma", "value": "> 100", "unit": "µM"}, {"measurement": "GI50", "setting": "SK-MEL-28 melanoma", "value": 33.3, "unit": "µM"}, {"measurement": "TGI", "setting": "SK-MEL-28 melanoma", "value": "> 100", "unit": "µM"}, {"measurement": "GI50", "setting": "T-47D breast", "value": 72.5, "unit": "µM"}, {"measurement": "TGI", "setting": "T-47D breast", "value": "> 100", "unit": "µM"}]}
{"compound": "C=CCN=c1sc2c(n1NC(=O)c1cc3ccc1CCc1ccc(cc1)CC3)C(=O)c1ccccc1C2=O", "values": [{"measurement": "GI50", "setting": "TK-10 renal", "value": 4.48, "unit": "µM"}, {"measurement": "TGI", "setting": "TK-10 renal", "value": 8.14, "unit": "µM"}, {"measurement": "GI50", "setting": "RXF 393 renal", "value": 1.35, "unit": "µM"}, {"measurement": "TGI", "setting": "RXF 393 renal", "value": 2.71, "unit": "µM"}, {"measurement": "GI50", "setting": "NCI-H226 lung", "value": 1.61, "unit": "µM"}, {"measurement": "TGI", "setting": "NCI-H226 lung", "value": 3.35, "unit": "µM"}, {"measurement": "GI50", "setting": "SR leukemia", "value": 1.78, "unit": "µM"}, {"measurement": "TGI", "setting": "SR leukemia", "value": "> 100", "unit": "µM"}, {"measurement": "GI50", "setting": "PC-3 prostate", "value": 1.49, "unit": "µM"}, {"measurement": "TGI", "setting": "PC-3 prostate", "value": 8.81, "unit": "µM"}, {"measurement": "GI50", "setting": "OVCAR-4 ovarian", "value": 1.26, "unit": "µM"}, {"measurement": "TGI", "setting": "OVCAR-4 ovarian", "value": 2.56, "unit": "µM"}, {"measurement": "GI50", "setting": "COLO 205 colon", "value": 1.94, "unit": "µM"}, {"measurement": "TGI", "setting": "COLO 205 colon", "value": 4.24, "unit": "µM"}, {"measurement": "GI50", "setting": "M14 melanoma", "value": 1.63, "unit": "µM"}, {"measurement": "TGI", "setting": "M14 melanoma", "value": 3.3, "unit": "µM"}, {"measurement": "GI50", "setting": "SK-MEL-28 melanoma", "value": 1.87, "unit": "µM"}, {"measurement": "TGI", "setting": "SK-MEL-28 melanoma", "value": 3.35, "unit": "µM"}, {"measurement": "GI50", "setting": "T-47D breast", "value": 2.02, "unit": "µM"}, {"measurement": "TGI", "setting": "T-47D breast", "value": 7.29, "unit": "µM"}]}
{"compound": "C=C1C(=O)O[C@H]2[C@H]1CC/C(CNC(=O)/C=C/c1cc(OC)c(OC)c(OC)c1)=C\\CC[C@@]1(C)O[C@@H]21", "values": [{"measurement": "GI50", "setting": "RXF 393 renal", "value": 0.298, "unit": "µM"}, {"measurement": "TGI", "setting": "RXF 393 renal", "value": 1.88, "unit": "µM"}, {"measurement": "GI50", "setting": "NCI-H226 lung", "value": 7.72, "unit": "µM"}, {"measurement": "TGI", "setting": "NCI-H226 lung", "value": 28.7, "unit": "µM"}, {"measurement": "GI50", "setting": "SR leukemia", "value": 0.383, "unit": "µM"}, {"measurement": "TGI", "setting": "SR leukemia", "value": 9.38, "unit": "µM"}, {"measurement": "GI50", "setting": "PC-3 prostate", "value": 6.24, "unit": "µM"}, {"measurement": "TGI", "setting": "PC-3 prostate", "value": 20, "unit": "µM"}, {"measurement": "GI50", "setting": "OVCAR-4 ovarian", "value": 1.51, "unit": "µM"}, {"measurement": "TGI", "setting": "OVCAR-4 ovarian", "value": 10.5, "unit": "µM"}, {"measurement": "GI50", "setting": "COLO 205 colon", "value": 0.618, "unit": "µM"}, {"measurement": "TGI", "setting": "COLO 205 colon", "value": 2.45, "unit": "µM"}, {"measurement": "GI50", "setting": "M14 melanoma", "value": 1.21, "unit": "µM"}, {"measurement": "TGI", "setting": "M14 melanoma", "value": 2.87, "unit": "µM"}, {"measurement": "GI50", "setting": "SK-MEL-28 melanoma", "value": 1.43, "unit": "µM"}, {"measurement": "TGI", "setting": "SK-MEL-28 melanoma", "value": 3.64, "unit": "µM"}, {"measurement": "GI50", "setting": "T-47D breast", "value": 2.25, "unit": "µM"}, {"measurement": "TGI", "setting": "T-47D breast", "value": 14.8, "unit": "µM"}]}
{"compound": "N#CC1(C#N)C2(c3ccccc3)OC(c3ccccc3)(c3cc4ccccc4cc32)C1(C#N)C#N", "values": [{"measurement": "TGI", "setting": "TK-10 renal", "value": 41, "unit": "µM"}, {"measurement": "TGI", "setting": "RXF 393 renal", "value": 13.8, "unit": "µM"}, {"measurement": "TGI", "setting": "NCI-H226 lung", "value": 37.2, "unit": "µM"}, {"measurement": "TGI", "setting": "SR leukemia", "value": 53.8, "unit": "µM"}, {"measurement": "TGI", "setting": "PC-3 prostate", "value": 32.9, "unit": "µM"}, {"measurement": "TGI", "setting": "OVCAR-4 ovarian", "value": 27.2, "unit": "µM"}, {"measurement": "TGI", "setting": "COLO 205 colon", "value": 18.1, "unit": "µM"}, {"measurement": "TGI", "setting": "M14 melanoma", "value": 31.6, "unit": "µM"}, {"measurement": "TGI", "setting": "SK-MEL-28 melanoma", "value": 26.1, "unit": "µM"}, {"measurement": "TGI", "setting": "T-47D breast", "value": 46.5, "unit": "µM"}]}
{"compound": "CCCCON(OC(=O)c1ccc2ccccc2c1)C(=O)c1ccccc1", "values": [{"measurement": "GI50", "setting": "TK-10 renal", "value": "> 100", "unit": "µM"}, {"measurement": "TGI", "setting": "TK-10 renal", "value": "> 100", "unit": "µM"}, {"measurement": "GI50", "setting": "RXF 393 renal", "value": "> 100", "unit": "µM"}, {"measurement": "TGI", "setting": "RXF 393 renal", "value": "> 100", "unit": "µM"}, {"measurement": "GI50", "setting": "NCI-H226 lung", "value": 74, "unit": "µM"}, {"measurement": "TGI", "setting": "NCI-H226 lung", "value": "> 100", "unit": "µM"}, {"measurement": "GI50", "setting": "SR leukemia", "value": 31.5, "unit": "µM"}, {"measurement": "TGI", "setting": "SR leukemia", "value": 77.1, "unit": "µM"}, {"measurement": "GI50", "setting": "PC-3 prostate", "value": "> 100", "unit": "µM"}, {"measurement": "TGI", "setting": "PC-3 prostate", "value": "> 100", "unit": "µM"}, {"measurement": "GI50", "setting": "OVCAR-4 ovarian", "value": "> 100", "unit": "µM"}, {"measurement": "TGI", "setting": "OVCAR-4 ovarian", "value": "> 100", "unit": "µM"}, {"measurement": "GI50", "setting": "COLO 205 colon", "value": "> 100", "unit": "µM"}, {"measurement": "TGI", "setting": "COLO 205 colon", "value": "> 100", "unit": "µM"}, {"measurement": "GI50", "setting": "M14 melanoma", "value": "> 100", "unit": "µM"}, {"measurement": "TGI", "setting": "M14 melanoma", "value": "> 100", "unit": "µM"}, {"measurement": "GI50", "setting": "SK-MEL-28 melanoma", "value": "> 100", "unit": "µM"}, {"measurement": "TGI", "setting": "SK-MEL-28 melanoma", "value": "> 100", "unit": "µM"}, {"measurement": "GI50", "setting": "T-47D breast", "value": "> 100", "unit": "µM"}, {"measurement": "TGI", "setting": "T-47D breast", "value": "> 100", "unit": "µM"}]}
